Laboratory results reported in patent US20080311126A1, “Antisense Oligonucleotides Directed to Ribonucleotide Reducatase R2 and Uses Thereof in Combination Therapies for the Treatment of Cancer” (Genesense Technologies, Inc, priority 2004, published 2008).
Oligonucleotides are written 5' to 3', each unit as a sugar letter and its base; * is a phosphorothioate linkage, no mark a phosphodiester; rarer units and linkages stand in square brackets, end groups in braces. Plain capitals give the bases only. d = 2'-deoxy (DNA)

How the values were obtained:
Assay type in all cases: cell-based, human
[1] = test system: HepG2 hepatocellular carcinoma; test: Relative colony forming efficiency (Example 17, Table 13); conditions: averages of 2-8 determinations
How it was run: (§1)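 Antisense phosphorothioates are tested at 0.2 μM unless stated, transfected with DOTMA/DOPE (2.5 μg) for four hours. Colony counts after methylene blue staining give percent inhibition versus vehicle-lipid controls.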

[2] = test system: MDA-MB-231 breast cell adenocarcinoma; test: as above; conditions: averages of 2-8 determinations
How it was run: as §1

[3] = test system: T-47D breast ductal carcinoma; test: as above; conditions: averages of 2-8 determinations
How it was run: as §1

[4] = test system: MDA PaCa-2 pancreatic cell carcinoma; test: as above; conditions: MIA PaCa-2 pancreatic cell carcinoma, averages of 2-8 determinations
How it was run: as §1

[5] = test system: HCT116 colon cell carcinoma; test: as above; conditions: averages of 2-8 determinations
How it was run: as §1

[6] = test system: T24 bladder cell carcinoma; test: as above; conditions: averages of 2-8 determinations
How it was run: as §1

[7] = test system: PC-3 prostrate cell adenocarcinoma; test: as above; conditions: averages of 2-8 determinations
How it was run: as §1

A549 lung cell carcinoma = test: as above; conditions: averages of 2-8 determinations
How it was run: as §1

Hela S3 cells = test: Relative colony forming efficiency, lipofectin +/- oligonucleotide 4 hours; conditions: Hela S3 cervix carcinoma cells; averages of 2-8 determinations
Procedure: Colony forming efficiency was determined using standard protocols. Briefly, the cells were cultured for 24 hours at 37° C. in growth medium with 10% fetal bovine serum. The cells were washed in 5 ml phosphate buffered saline, pH 7.2, once prior to lipofectin +/−oligonucleotide treatment.
The test oligonucleotides were added to cell cultures in the presence of 2.5 μg of DOTMA/DOPE (Lipofectin; Life Technologies, Inc.) for four hours. The oligonucleotide was tested at 0.2 μM unless otherwise indicated. Controls were the cultures treated with lipofectin but without the oligonucleotide. After 4 hours the medium containing the oligonucleotide was removed and washed with 5 ml of growth medium. The cells were then cultured in growth medium containing 10% fetal bovine serum for seven to ten days. Surviving cells were visualized by methylene blue staining, and colonies were scored. In some experiments cell aliquots were removed from the culture and viability was determined using the trypan blue exclusion test. Results were analyzed as percent of surviving cells compared to control cells.
AS-II-336-20 was tested for the ability to inhibit the proliferation of human tumour cells (Hela). Hela S3 cells (American Type Culture Collection, Rockville, Md., ATCC), and a Hela cell line (Hela 1 mM) previously selected for resistance to the antitumour agent, hydroxyurea, were tested (see results in Table 11). Two experiments were undertaken with Hela S3 cells. […] The same experiment was repeated with the Hela 1 mM cell line and with varying concentrations of the antisense construct AS-II-336-20 (see results in Table 11) with similar results, […] was an effective concentration for inhibiting colony formation.
To test the antisense effects of many of these sequences as phosphorthioate deoxyribonucleotides, they were examined in relative colony forming experiments conducted as described in Example 16 with a series of human tumour cell lines. The results (shown as % inhibition of colony forming ability) obtained with cancer cells derived from the bladder, breast, lung, colon, pancreas, prostate, liver and cervix, are shown in Table 13. The specific cell lines employed are as follows:
T24=bladder cell carcinoma HCT116=colon cell carcinoma A549=lung cell carcinoma MDA-MB-231=breast cell adenocarcinoma […]=pancreatic cell carcinoma PC-3=prostrate cell adenocarcinoma HepG2=hepatocellular carcinoma HeLaS3=cells isolated from a carcinoma of the cervix T-47D=breast ductal carcinoma H596=lung adenosquamous carcinoma cells Colo320=colon cell adenocarcinoma

Sequence	Reduced relative colony forming efficiency, HepG2 (% inhibition of colony forming ability) [1] [%]	Reduced relative colony forming efficiency, MDA-MB-231 (% inhibition of colony forming ability) [2] [%]	Reduced relative colony forming efficiency, T-47D (% inhibition of colony forming ability) [3] [%]	Reduced relative colony forming efficiency, MIA PaCa-2 (% inhibition of colony forming ability) [4] [%]	Reduced relative colony forming efficiency, HCT116 (% inhibition of colony forming ability) [5] [%]	Reduced relative colony forming efficiency, T24 (% inhibition of colony forming ability) [6] [%]	Reduced relative colony forming efficiency, PC-3 (% inhibition of colony forming ability) [7] [%]	Reduced relative colony forming efficiency, A549 (% inhibition of colony forming ability) (A549 lung cell carcinoma) [%]	Reduced relative colony forming efficiency, Hela S3 (% inhibition of colony forming ability) (Hela S3 cells) [%]	Reduced relative colony forming efficiency, HepG2 (% inhibition of colony forming ability) ([1]; listed as AS-II-75-20 *) [%]	Reduced relative colony forming efficiency, MDA-MB-231 (% inhibition of colony forming ability) ([2]; listed as AS-II-75-20 *) [%]	Reduced relative colony forming efficiency, MIA PaCa-2 (% inhibition of colony forming ability) ([4]; listed as AS-II-75-20 *) [%]	Reduced relative colony forming efficiency, T24 (% inhibition of colony forming ability) ([6]; listed as AS-II-75-20 *) [%]	Reduced relative colony forming efficiency, PC-3 (% inhibition of colony forming ability) ([7]; listed as AS-II-75-20 *) [%]
AAAAATCAGCCAAGTAAGGG (antisense dA*dA*dA*dA*dA*dT*dC*dA*dG*dC*dC*dA*dA*dG*dT*dA*dA*dG*dG*dG) [AS-II-1381-20]	62.34	44.41	93.62	73.77	89.48	71.37	75	86.02	80.53					
GACACAAGGCATCGTTTCAA (antisense dG*dA*dC*dA*dC*dA*dA*dG*dG*dC*dA*dT*dC*dG*dT*dT*dT*dC*dA*dA) [AS-II-784-20]	80.89	33.92	85.39	62.04	78.09	87.23	88.99	83.8	81.48					
CGCGCGCTCCCGGCCCTTCC (listed as DNA, chemistry not fully specified) [AS-II-75-20]	97.89	95.14	32.95	52.07	44.4	95.83	83.46	60.08	93.01	35.4	49.3	97.38	73.42	68.25
GCTCCCACATATGAAAACTC (antisense dG*dC*dT*dC*dC*dC*dA*dC*dA*dT*dA*dT*dG*dA*dA*dA*dA*dC*dT*dC) [AS-II-2229A-20]	73.26		58.82	33.61	93.01	50.34	89.58	69.72	63.15					
CCCAGTTCCAGCATAAGTCT (antisense dC*dC*dC*dA*dG*dT*dT*dC*dC*dA*dG*dC*dA*dT*dA*dA*dG*dT*dC*dT) [AS-II-1182-20]	92.23		92.41	84.72	88.13	94.51	92.76	80.06	90.61					
TCCTCGGCGGTCCAAA (antisense dT*dC*dC*dT*dC*dG*dG*dC*dG*dG*dT*dC*dC*dA*dA*dA) [AS-II-496-16]	54.8	45.8	10.79		70.85	78.48	88.84	74.45	52.21					
GCACGGGCGACC (antisense dG*dC*dA*dC*dG*dG*dG*dC*dG*dA*dC*dC) [AS-II-127-12]	71.75	38.46	37.54	53.34	54.34	50.63	79.56	69.33	86.45					
AAAACCTTGCTAAAACCCAG (antisense dA*dA*dA*dA*dC*dC*dT*dT*dG*dC*dT*dA*dA*dA*dA*dC*dC*dC*dA*dG) [AS-II-1197-20]	76.32	50.35	81.95	70.68	84.85	90.3	74.4	89.15	82.68					
GTCTCTCCTCCGATGGTTTG [AS-II-1040-20]	77.78		64.76	43.52	70.08	59.49	40.08	85.82	71.87					
